# Reference: ChEMBL document CHEMBL1201862, “PubChem BioAssay data set” (2004)
#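 The compound was tested at five concentrations on cells cultured in 96-well plates, with a 48-hour exposure period. The concentration for 50% growth inhibition is given as GI50.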 Calls of active or inactive are those of the source. Rule as the data show it: active = GI50 up to about 1.1 µM and inactive = higher.
# Legend:
# Experiment in all cases: inhibition of tumour cell growth, NCI panel, 48 h
# 786-0 = system: 786-0
# A498 = system: A498
# A549 = system: A549
# ACHN = system: ACHN
# BT-549 = system: BT-549
# CAKI-1 = system: CAKI-1
# CCRF-CEM = system: CCRF-CEM
# COLO 205 = system: COLO 205
# DU-145 = system: DU-145
# HCT-116 = system: HCT-116
# HCT-15 = system: HCT-15
# HL-60 = system: HL-60
# HOP-92 = system: HOP-92
# HT-29 = system: HT-29
# Hs-578T = system: Hs-578T
# IGROV-1 = system: IGROV-1
# K562 = system: K562
# KM12 = system: KM12
# LOX IMVI = system: LOX IMVI
# M14 = system: M14
# MCF7 = system: MCF7
# MDA-MB-231 = system: MDA-MB-231
# MDA-MB-435 = system: MDA-MB-435
# MDA-N = system: MDA-N
# MOLT-4 = system: MOLT-4
# Malme-3M = system: Malme-3M
# NCI-H226 = system: NCI-H226
# NCI-H23 = system: NCI-H23
# NCI-H522 = system: NCI-H522
# NCI/ADR-RES = system: NCI/ADR-RES
# OVCAR-4 = system: OVCAR-4
# OVCAR-5 = system: OVCAR-5
# OVCAR-8 = system: OVCAR-8
# PC-3 = system: PC-3
# RPMI-8226 = system: RPMI-8226
# RXF 393 = system: RXF 393
# SF-268 = system: SF-268
# SF-539 = system: SF-539
# SK-MEL-2 = system: SK-MEL-2
# SK-MEL-5 = system: SK-MEL-5
# SN12C = system: SN12C
# SNB-19 = system: SNB-19
# SR = system: SR
# SW-620 = system: SW-620
# U-251 = system: U-251
# UACC-257 = system: UACC-257
# UACC-62 = system: UACC-62
# UO-31 = system: UO-31
# HOP-62 = system: HOP-62
# NCI-H460 = system: NCI-H460
# OVCAR-3 = system: OVCAR-3
# SF-295 = system: SF-295
# SK-MEL-28 = system: SK-MEL-28
# SK-OV-3 = system: SK-OV-3
# SNB-75 = system: SNB-75
# T47D = system: T47D
# TK-10 = system: TK-10
# EKVX = system: EKVX
# HCC 2998 = system: HCC 2998
smiles,measurement,setting,value
Cc1ccc2c3c1O[C@H]1c4[nH]c5ccccc5c4C[C@@]4(O)[C@@H](C2)N(C)CC[C@]314,GI50,786-0,15.6 µM (inactive)
same,GI50,A498,17 µM (inactive)
same,GI50,A549,17 µM (inactive)
same,GI50,ACHN,15.9 µM (inactive)
same,GI50,BT-549,16.4 µM (inactive)
same,GI50,CAKI-1,17.3 µM (inactive)
same,GI50,CCRF-CEM,18.3 µM (inactive)
same,GI50,COLO 205,14.4 µM (inactive)
same,GI50,DU-145,19.8 µM (inactive)
same,GI50,HCT-116,16.6 µM (inactive)
same,GI50,HCT-15,17.2 µM
same,GI50,HL-60,14.6 µM (inactive)
same,GI50,HOP-92,9.08 µM (inactive)
same,GI50,HT-29,11.5 µM (inactive)
same,GI50,Hs-578T,0.474 µM (active)
same,GI50,IGROV-1,18 µM (inactive)
same,GI50,K562,16.9 µM (inactive)
same,GI50,KM12,16.9 µM (inactive)
same,GI50,LOX IMVI,15.4 µM (inactive)
same,GI50,M14,16.2 µM (inactive)
same,GI50,MCF7,16 µM (inactive)
same,GI50,MDA-MB-231,15.2 µM (inactive)
same,GI50,MDA-MB-435,14.5 µM (inactive)
same,GI50,MDA-N,17.8 µM (inactive)
same,GI50,MOLT-4,16.4 µM (inactive)
same,GI50,Malme-3M,13.9 µM (inactive)
same,GI50,NCI-H226,9.04 µM (inactive)
same,GI50,NCI-H23,18.4 µM (inactive)
same,GI50,NCI-H522,19.1 µM (inactive)
same,GI50,NCI/ADR-RES,17.8 µM (inactive)
same,GI50,OVCAR-4,16.9 µM (inactive)
same,GI50,OVCAR-5,20.7 µM (inactive)
same,GI50,OVCAR-8,18.6 µM (inactive)
same,GI50,PC-3,17.3 µM (inactive)
same,GI50,RPMI-8226,14.1 µM (inactive)
same,GI50,RXF 393,10.1 µM (inactive)
same,GI50,SF-268,17.1 µM (inactive)
same,GI50,SF-539,15.7 µM (inactive)
same,GI50,SK-MEL-2,20.7 µM (inactive)
same,GI50,SK-MEL-5,14.5 µM (inactive)
same,GI50,SN12C,18.2 µM (inactive)
same,GI50,SNB-19,17.9 µM (inactive)
same,GI50,SR,13.7 µM (inactive)
same,GI50,SW-620,15 µM (inactive)
same,GI50,U-251,16 µM (inactive)
same,GI50,UACC-257,13.7 µM (inactive)
same,GI50,UACC-62,16.6 µM (inactive)
same,GI50,UO-31,13.7 µM (inactive)
COc1cc2c(/C=C3/C(=O)Nc4cccc(Cl)c43)c(Cl)[nH]c2cc1C,GI50,786-0,1.85 µM (inactive)
same,GI50,A498,8.67 µM (inactive)
same,GI50,A549,2.09 µM (inactive)
same,GI50,ACHN,2.67 µM (inactive)
same,GI50,BT-549,1.46 µM (inactive)
same,GI50,CAKI-1,1.86 µM (inactive)
same,GI50,CCRF-CEM,1.56 µM (inactive)
same,GI50,COLO 205,1.95 µM (inactive)
same,GI50,DU-145,1.88 µM (inactive)
same,GI50,HCT-116,1.49 µM (inactive)
same,GI50,HCT-15,1.95 µM
same,GI50,HL-60,1.82 µM (inactive)
same,GI50,HOP-62,2.15 µM (inactive)
same,GI50,HOP-92,8.17 µM (inactive)
same,GI50,HT-29,1.94 µM (inactive)
same,GI50,Hs-578T,1.98 µM (inactive)
same,GI50,IGROV-1,1.59 µM (inactive)
same,GI50,K562,1.76 µM (inactive)
same,GI50,KM12,1.7 µM (inactive)
same,GI50,LOX IMVI,1.8 µM (inactive)
same,GI50,M14,2.23 µM (inactive)
same,GI50,MCF7,2.05 µM (inactive)
same,GI50,MDA-MB-231,1.08 µM (active)
same,GI50,MDA-MB-435,1.57 µM (inactive)
same,GI50,MOLT-4,0.366 µM (active)
same,GI50,NCI-H226,1.44 µM (inactive)
same,GI50,NCI-H23,2.51 µM (inactive)
same,GI50,NCI-H460,1.72 µM (inactive)
same,GI50,NCI-H522,2.32 µM (inactive)
same,GI50,NCI/ADR-RES,1.65 µM (inactive)
same,GI50,OVCAR-3,1.6 µM (inactive)
same,GI50,OVCAR-4,0.078 µM (active)
same,GI50,OVCAR-5,4.02 µM (inactive)
same,GI50,OVCAR-8,2.54 µM (inactive)
same,GI50,PC-3,2.68 µM (inactive)
same,GI50,RPMI-8226,1.93 µM (inactive)
same,GI50,RXF 393,2 µM (inactive)
same,GI50,SF-268,3.8 µM (inactive)
same,GI50,SF-295,1.69 µM (inactive)
same,GI50,SF-539,1.6 µM (inactive)
same,GI50,SK-MEL-28,1.21 µM (inactive)
same,GI50,SK-MEL-2,3.05 µM (inactive)
same,GI50,SK-MEL-5,3.5 µM (inactive)
same,GI50,SK-OV-3,2.21 µM (inactive)
same,GI50,SN12C,1.32 µM (inactive)
same,GI50,SNB-19,2.14 µM (inactive)
same,GI50,SNB-75,1.44 µM (inactive)
same,GI50,SR,1.41 µM (inactive)
same,GI50,SW-620,2.24 µM (inactive)
same,GI50,T47D,1.43 µM (inactive)
same,GI50,TK-10,1.06 µM (active)
same,GI50,U-251,1.78 µM (inactive)
same,GI50,UACC-257,2.26 µM (inactive)
same,GI50,UACC-62,1.95 µM (inactive)
same,GI50,UO-31,3.73 µM (inactive)
CC(C)(CCCCC(C)(C)C1NC(=O)N1)C1NC(=O)N1,GI50,A498,> 10 µM (inactive)
same,GI50,A549,> 10 µM (inactive)
same,GI50,ACHN,> 10 µM (inactive)
same,GI50,CAKI-1,> 10 µM (inactive)
same,GI50,CCRF-CEM,> 10 µM (inactive)
same,GI50,COLO 205,> 10 µM (inactive)
same,GI50,DU-145,> 10 µM (inactive)
same,GI50,EKVX,> 10 µM (inactive)
same,GI50,HCC 2998,> 10 µM (inactive)
same,GI50,HCT-116,> 10 µM (inactive)
same,GI50,HCT-15,> 10 µM
same,GI50,HL-60,> 10 µM (inactive)
same,GI50,HOP-62,> 10 µM (inactive)
same,GI50,HT-29,> 10 µM (inactive)
same,GI50,Hs-578T,> 10 µM (inactive)
same,GI50,IGROV-1,> 10 µM (inactive)
same,GI50,K562,> 10 µM (inactive)
same,GI50,KM12,> 10 µM (inactive)
same,GI50,LOX IMVI,> 10 µM (inactive)
same,GI50,M14,> 10 µM (inactive)
same,GI50,MCF7,> 10 µM (inactive)
same,GI50,MDA-MB-231,> 10 µM (inactive)
same,GI50,MDA-MB-435,> 10 µM (inactive)
same,GI50,MDA-N,> 10 µM (inactive)
same,GI50,MOLT-4,> 10 µM (inactive)
same,GI50,Malme-3M,> 10 µM (inactive)
same,GI50,NCI-H226,> 10 µM (inactive)
same,GI50,NCI-H23,> 10 µM (inactive)
same,GI50,NCI-H460,> 10 µM (inactive)
same,GI50,NCI-H522,> 10 µM (inactive)
same,GI50,NCI/ADR-RES,> 10 µM (inactive)
same,GI50,OVCAR-4,> 10 µM (inactive)
same,GI50,OVCAR-5,> 10 µM (inactive)
same,GI50,OVCAR-8,> 10 µM (inactive)
same,GI50,PC-3,> 10 µM (inactive)
same,GI50,RPMI-8226,> 10 µM (inactive)
same,GI50,RXF 393,> 10 µM (inactive)
same,GI50,SF-268,> 10 µM (inactive)
same,GI50,SF-295,> 10 µM (inactive)
same,GI50,SF-539,> 10 µM (inactive)
same,GI50,SK-MEL-28,> 10 µM (inactive)
same,GI50,SK-MEL-2,> 10 µM (inactive)
same,GI50,SK-MEL-5,> 10 µM (inactive)
same,GI50,SK-OV-3,> 10 µM (inactive)
same,GI50,SN12C,> 10 µM (inactive)
same,GI50,SNB-19,> 10 µM (inactive)
same,GI50,SNB-75,> 10 µM (inactive)
same,GI50,SW-620,> 10 µM (inactive)
same,GI50,T47D,> 10 µM (inactive)
same,GI50,TK-10,> 10 µM (inactive)
same,GI50,U-251,> 10 µM (inactive)
same,GI50,UACC-62,> 10 µM (inactive)
same,GI50,UO-31,5.05 µM (inactive)
